Experimental data: patent publication US20110097338A1, “Use of Substances for Sensitization of Tumor Cells to Radiation and/or Chemotherapy” (TECHNISCHE UNIVERSITAET DRESDEN, priority 2008, published 2011)
d = 2'-deoxy (DNA); r = 2'-OH (RNA)

Tests used:
Type in all cases: cell-based, human
DLD-1 = assay: Clonogenic survival after radiation (colony forming assay), siRNA transfection; settings: siRNA 20 nmol/l, irradiated 48 h later with 0-6 Gy
Method: (§1) Human colorectal tumor cell lines of the type HCT-116 (ATCC No. CCL-247) and of the type DLD-1 (ATCC No. CCL-221) were transfected with PINCH-1-siRNA of the SEQ ID No. 5. For this purpose, 3×10^5 tumor cells on 6-well plates (BD, Heidelberg) in Dulbecco's Modified Eagle (DMEM; Gibco, Karlsruhe) with Glutamax-I (L-alanyl-L-glutamine), 10% serum (FCS; Biochrom, Berlin) and 1% of non-essential amino acids (Gibco, Karlsruhe) were seeded and cultured at 37° C. and 7% CO2. After 24 h the cells were washed once with Opti-MEM I (Invitrogen, Karlsruhe) and transfected with oligo fectamine (0.2%) and 20 nmol/l PINCH-1-siRNA for 8 h without serum in Opti-MEM I. Afterwards 10% serum was added and the cells incubated for another 16 h at 37° C. and 7% CO2. After a total of 24 h after transfection the cells were washed with phosphate-buffered saline solution (PBS; PAA, Cölbe) and removed with trypsin/EDTA solution. […] Of this portion, protein lysates were produced for examining knock-downs in the Western Blot, the proteins were separated by means of SDS PAGE, transferred onto a nitrocellulose membrane and detected with a mouse-anti-PINCH-1-antibody (clone 49; BD Heidelberg) as well as a peroxidase-coupled goat-anti-mouse-secondary antibody and the ECL system (GE Healthcare, Munich).

HCT-116 = assay: as above; settings: siRNA 20 nmol/l, irradiated 48 h later with 0-6 Gy
Method: as §1

PINCH-1 protein = assay: Western Blot of PINCH-1 knock-down after siRNA transfection; settings: HCT-116 and DLD-1 cells; 20 nmol/l siRNA with oligo fectamine; lysates 48 h after transfection
Method: as §1

Substance: GCUAUAUCUCAAAGCAGUUtt (GCUAUAUCUCAAAGCAGUUTT; siRNA; sugars from the 5' end r19 d2, backbone not given here) [PINCH-1-siRNA of the SEQ ID No. 5]
- survival rate after radiation vs. control-siRNA (FIG. 4) (DLD-1): lowered significantly
- survival rate after radiation vs. control-siRNA (FIG. 4) (HCT-116): lowered significantly
- formation of PINCH-1 protein / PINCH-1 expression (Western Blot, FIG. 3) (PINCH-1 protein): prevented
